Test results taken from patent US20260176254A1, “INHIBITORS OF PROSTATE SPECIFIC MEMBRANE ANTIGEN AND USE THEREOF” (SHANGHAI SINOTAU BIOTECH. CO., LTD, priority 2023, published 2026).

Columns and labels:
[1] = biological target: T1, recombinant human PSMA (rhPSMA) (Homo sapiens, UniProt Q04609); assay: Naaladase assay (fluorescence-based Naaladase activity inhibition); format: biochemical; conditions: rhPSMA 0.4 μg/mL, substrate N-Acetyl-Asp-Glu 40 μM, 37° C. one hour
T1 construct: purchased Sino Biological
Procedure: Naaladase activity inhibition was determined using a fluorescence-based assay. Briefly, the solution containing the substrate N-Acetyl-Asp-Glu (Sigma-Aldrich) at 40 μM and the compound at concentrations from 0.15 nM to 1000 nM was mixed at equal volume with recombinant human PSMA (rhPSMA, Sino Biological) at 0.4 μg/mL, in assay buffer (50 mM HEPES, 100 mM NaCl, pH 7.5). The enzymatic reaction was proceeded by incubation at 37° C. for one hour and then stopped by heating at 95° C. for 5 minutes. A solution of 15 mM ortho-phthaldialdehyde (Sigma-Aldrich) was added to all vials and incubated for 10 min at ambient temperature. The reaction solutions were loaded onto a 96-well flat clear bottom black microplates (Corning) and read at excitation and emission wavelengths of 330 and 450 nm, respectively, using a microplate reader (Tecan). The data were analyzed by a one-site total binding regression algorithm of GraphPad Prism (GraphPad Software).

[2] = system: LNCaP cells; assay: Cell uptake assay of 177Lu-labeled compound; format: cell-based; conditions: for Membrane (%): cell membrane fraction; for Intracellular (%): intracellular fraction
Procedure: LNCaP (ATCC) cells were cultured in RPMI 1640 medium (Gibco) containing 10% fetal bovine serum (FBS) (Gibco), in 5% carbon dioxide (CO2), at 37.0° C. in a humidified incubator. 2×10^5 LNCaP cells/well were seeded in a 24-well plate the day before experiment. 7.4 KBq (200 nCi) of ^177Lu-labeled compound was added into each well, and then incubated in 37° C., 5% CO2 incubator for varying durations. At each time point, the supernatant, cell membrane and intracellular fractions were collected. The cell membrane fraction was recovered by incubating cells with buffer containing 50 mM glycine and 100 mM NaCl, pH 2.7 for 10 minutes at 37° C., while the intracellular fraction was recovered from cells treated with 1M NaOH. Activity of ^177Lu-labelled compound in every component was detected by gamma counter.

T1 sequence (Q04609 whole entry): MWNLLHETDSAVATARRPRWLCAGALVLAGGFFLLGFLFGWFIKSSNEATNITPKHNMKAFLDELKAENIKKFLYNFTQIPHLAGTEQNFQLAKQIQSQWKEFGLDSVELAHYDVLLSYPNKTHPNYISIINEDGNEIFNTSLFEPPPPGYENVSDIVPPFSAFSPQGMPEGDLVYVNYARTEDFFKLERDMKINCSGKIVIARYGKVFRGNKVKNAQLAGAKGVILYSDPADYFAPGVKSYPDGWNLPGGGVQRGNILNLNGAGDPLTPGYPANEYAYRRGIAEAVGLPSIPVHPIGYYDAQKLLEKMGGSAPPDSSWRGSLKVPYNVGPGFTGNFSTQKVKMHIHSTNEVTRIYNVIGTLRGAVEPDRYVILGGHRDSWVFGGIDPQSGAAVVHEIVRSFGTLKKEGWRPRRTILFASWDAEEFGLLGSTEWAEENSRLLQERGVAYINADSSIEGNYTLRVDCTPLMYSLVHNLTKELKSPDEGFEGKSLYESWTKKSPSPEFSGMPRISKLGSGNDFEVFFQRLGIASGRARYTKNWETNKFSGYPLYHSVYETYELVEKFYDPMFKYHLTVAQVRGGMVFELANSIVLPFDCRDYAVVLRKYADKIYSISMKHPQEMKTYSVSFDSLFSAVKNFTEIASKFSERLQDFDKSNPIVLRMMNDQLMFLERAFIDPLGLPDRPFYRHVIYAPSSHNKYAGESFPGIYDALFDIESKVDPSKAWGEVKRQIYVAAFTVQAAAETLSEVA

Row | Structure (SMILES) | IC50 [1] [nM] | Membrane (%) ([2]; 1 hr) | Membrane (%) ([2]; 4 hr) | Membrane (%) ([2]; 24 hr) | Intracellular (%) ([2]; 1 hr) | Intracellular (%) ([2]; 4 hr) | Intracellular (%) ([2]; 24 hr)
1 | O=C(O)CC[C@H](NC(=O)N[C@@H](CCCCNC(=O)[C@H](Cc1ccc2ccccc2c1)Nc1c(NC23CCC(CNC(=O)CN4CCN(CC(=O)O)CCN(CC(=O)O)CCN(CC(=O)O)CC4)(CC2)CC3)c(=O)c1=O)C(=O)O)C(=O)O [E1, (((S)-1-carboxy-5-((S)-2-((3,4-dioxo-2-((4-((2-(4,7,10-tris(carboxymethyl)-1,4,7,10-tetraazacyclododecan-1-yl)acetamido)methyl)bicyclo[2.2.2]octan-1-yl)amino)cyclobut-1-en-1-yl)amino)-3-(naphthalen-2-yl)propanamido)pentyl)carbamoyl)-L-glutamic acid] | 3.3 | 3.4 | 5.6 | 7.1 | 3.0 | 9.9 | 24.8
2 | O=C(O)CN1CCN(CC(=O)O)CCN(CC(=O)NCC23CCC(Nc4c(N[C@@H](Cc5c6ccccc6cc6ccccc56)C(=O)NCCCC[C@H](NC(=O)N[C@@H](CNC(=O)C(=O)O)C(=O)O)C(=O)O)c(=O)c4=O)(CC2)CC3)CCN(CC(=O)O)CC1 [E3, (4S,8S,15S)-16-(anthracen-9-yl)-15-((3,4-dioxo-2-((4-((2-(4,7,10-tris(carboxymethyl)-1,4,7,10-tetraazacyclododecan-1-yl)acetamido)methyl)bicyclo[2.2.2]octan-1-yl)amino)cyclobut-1-en-1-yl)amino)-1,6,14-trioxo-2,5,7,13-tetraazahexadecane-1,4,8-tricarboxylic acid] | 1.2 | 4.0 | 6.8 | 8.8 | 14.7 | 44.2 | 73.3
3 | O=C(O)CCC[C@H](NC(=O)N[C@@H](CCCCNC(=O)[C@H](Cc1c2ccccc2cc2ccccc12)Nc1c(NC23CCC(NC(=O)CN4CCN(CC(=O)O)CCN(CC(=O)O)CCN(CC(=O)O)CC4)(CC2)CC3)c(=O)c1=O)C(=O)O)C(=O)O [E4, (S)-2-(3-((S)-5-((S)-3-(anthracen-9-yl)-2-((3,4-dioxo-2-((4-(2-(4,7,10-tris(carboxymethyl)-1,4,7,10-tetraazacyclododecan-1-yl)acetamido)bicyclo[2.2.2]octan-1-yl)amino)cyclobut-1-en-1-yl)amino)propanamido)-1-carboxypentyl)ureido)hexanedioic acid] | 1.4 | 6.4 | 12.8 | 13.0 | 7.2 | 23.0 | 57.4
4 | O=C(O)CC[C@H](NC(=O)N[C@@H](CCCCNC(=O)[C@H](Cc1ccc2ccccc2c1)Nc1c(NC23CCC(NC(=O)CN4CCN(CC(=O)O)CCN(CC(=O)O)CCN(CC(=O)O)CC4)(CC2)CC3)c(=O)c1=O)C(=O)O)C(=O)O [E6, (((S)-1-carboxy-5-((S)-2-((3,4-dioxo-2-((4-(2-(4,7,10-tris(carboxymethyl)-1,4,7,10-tetraazacyclododecan-1-yl)acetamido)bicyclo[2.2.2]octan-1-yl)amino)cyclobut-1-en-1-yl)amino)-3-(naphthalen-2-yl)propanamido)pentyl)carbamoyl)-L-glutamic acid] | 1.5 | 6.3 | 10.1 | 11.6 | 5.7 | 18.9 | 45.5
5 | O=C(O)CN1CCN(CC(=O)O)CCN(CC(=O)NC23CCC(Nc4c(N[C@@H](Cc5c6ccccc6cc6ccccc56)C(=O)NCCCC[C@H](NC(=O)N[C@@H](CNC(=O)C(=O)O)C(=O)O)C(=O)O)c(=O)c4=O)(CC2)CC3)CCN(CC(=O)O)CC1 [E8] | 1.6 | 4.8 | 12.8 | 7.3 | 11.5 | 39.0 | 77.9
6 | O=C(O)CN1CCN(CC(=O)O)CCN(Cc2nnc(C34CCC(Nc5c(N[C@@H](Cc6c7ccccc7cc7ccccc67)C(=O)NCCCC[C@H](NC(=O)N[C@@H](CNC(=O)C(=O)O)C(=O)O)C(=O)O)c(=O)c5=O)(CC3)CC4)o2)CCN(CC(=O)O)CC1 [E9] | 1 | 5.0 | 9.7 | 10.1 | 12.4 | 40.4 | 72.0

Further lines, with some results ahead:

Row | IC50 [1] [nM] | Structure (SMILES) | Membrane (%) ([2]; 1 hr) | Membrane (%) ([2]; 4 hr) | Membrane (%) ([2]; 24 hr) | Intracellular (%) ([2]; 1 hr) | Intracellular (%) ([2]; 4 hr) | Intracellular (%) ([2]; 24 hr)
7 | 1.5 | O=C(O)CN1CCN(CC(=O)O)CCN(CC(=O)NC23CCC(Nc4c(N[C@@H](Cc5ccc6ccccc6c5)C(=O)NCCCC[C@H](NC(=O)N[C@@H](CNC(=O)C(=O)O)C(=O)O)C(=O)O)c(=O)c4=O)(CC2)CC3)CCN(CC(=O)O)CC1 [E21, (4S,8S,15S)-15-((3,4-dioxo-2-((4-(2-(4,7,10-tris(carboxymethyl)-1,4,7,10-tetraazacyclododecan-1-yl)acetamido)bicyclo[2.2.2]octan-1-yl)amino)cyclobut-1-en-1-yl)amino)-16-(naphthalen-2-yl)-1,6,14-trioxo-2,5,7,13-tetraazahexadecane-1,4,8-tricarboxylic acid] | – | – | – | – | – | –
8 | 4.9 | O=C(O)CN1CCN(CC(=O)O)CCN(CC(=O)NC23CCC(Nc4cc(N[C@@H](Cc5c6ccccc6cc6ccccc56)C(=O)NCCCC[C@H](NC(=O)N[C@@H](CNC(=O)C(=O)O)C(=O)O)C(=O)O)ncn4)(CC2)CC3)CCN(CC(=O)O)CC1 [E22, (4S,8S,15S)-16-(anthracen-9-yl)-1,6,14-trioxo-15-((6-((4-(2-(4,7,10-tris(carboxymethyl)-1,4,7,10-tetraazacyclododecan-1-yl)acetamido)bicyclo[2.2.2]octan-1-yl)amino)pyrimidin-4-yl)amino)-2,5,7,13-tetraazahexadecane-1,4,8-tricarboxylic acid] | – | – | – | – | – | –
9 | 8.6 | O=C(O)CC[C@H](NC(=O)N[C@@H](CCCCNC(=O)[C@H](Cc1ccc2ccccc2c1)Nc1cc(NC23CCC(NC(=O)CN4CCN(CC(=O)O)CCN(CC(=O)O)CCN(CC(=O)O)CC4)(CC2)CC3)ncn1)C(=O)O)C(=O)O [E24] | – | – | – | – | – | –
10 | 23.1 | COc1nc(N[C@@H](Cc2ccc3ccccc3c2)C(=O)NCCCC[C@H](NC(=O)N[C@@H](CCC(=O)O)C(=O)O)C(=O)O)cc(NC23CCC(NC(=O)CN4CCN(CC(=O)O)CCN(CC(=O)O)CCN(CC(=O)O)CC4)(CC2)CC3)n1 [E25] | – | – | – | – | – | –
11 | 9.5 | O=C(O)CN1CCN(CC(=O)O)CCN(CC(=O)NC23CCC(Nc4nnc(N[C@@H](Cc5c6ccccc6cc6ccccc56)C(=O)NCCCC[C@H](NC(=O)N[C@@H](CNC(=O)C(=O)O)C(=O)O)C(=O)O)s4)(CC2)CC3)CCN(CC(=O)O)CC1 [E26] | – | – | – | – | – | –
12 | 26.6 | O=C(O)CC[C@H](NC(=O)N[C@@H](CCCCNC(=O)[C@H](Cc1ccc2ccccc2c1)Nc1nc(O)nc(NC23CCC(NC(=O)CN4CCN(CC(=O)O)CCN(CC(=O)O)CCN(CC(=O)O)CC4)(CC2)CC3)n1)C(=O)O)C(=O)O [E27] | – | – | – | – | – | –
13 | 2.1 | O=C(O)CC[C@H](NC(=O)N[C@@H](CCCCNC(=O)[C@H](Cc1ccc2ccccc2c1)Nc1c(NC23CCC(c4nnc(CN5CCN(CC(=O)O)CCN(CC(=O)O)CCN(CC(=O)O)CC5)o4)(CC2)CC3)c(=O)c1=O)C(=O)O)C(=O)O [E28] | – | – | – | – | – | –
